Assay results: patent US8541461B2 (Astex Therapeutics Limited, priority 2005, dated 2013)
Like-named read-outs stand apart in the source and are kept apart here.

How the values were obtained:
[1] = target: T1, PKB-PIF fusion protein (protein kinase B) (Homo sapiens, UniProt P31751); experiment: Measurement of PKB kinase inhibitory activity (IC50); assay type: biochemical
T1 construct: PIF (fusion partner); made in house
Procedure: The reaction is allowed to proceed for 20 minutes before addition of excess orthophosphoric acid to quench activity. The reaction mixture is transferred to a phosphocellulose filter plate where the peptide binds and the unused ATP is washed away. After washing, scintillant is added and the incorporated activity measured by scintillation counting.

PKA catalytic domain = target: T2, PKA catalytic domain (Homo sapiens, UniProt P17612); experiment: Measurement of PKA kinase inhibitory activity (IC50); assay type: biochemical
T2 construct: PKA catalytic domain from Upstate Biotechnology (#14-440); purchased Upstate Biotechnology 14-440
Procedure: A final concentration of 1 nM enzyme is used in a buffer that includes 20 mM MOPS pH 7.2, 40 μM ATP/γ^33P-ATP and 5 μM substrate. […] The reaction is allowed to proceed for 20 minutes before addition of excess orthophosphoric acid to quench activity. Unincorporated γ^33P-ATP is then separated from phosphorylated proteins on a Millipore MAPH filter plate. The plates are washed, scintillant is added and the plates are then subjected to counting on a Packard Topcount.

[2] = 1 nM enzyme, 40 μM ATP/γ33P-ATP, 5 μM substrate, read-out: PKA IC50
[3] = 0.6 nM enzyme, 30 μM ATP/γ33P-ATP, 25 μM AKTide-2T substrate, read-out: PKB IC50

T1 sequence (P31751 with tags, fused parts or gaps limits assumed): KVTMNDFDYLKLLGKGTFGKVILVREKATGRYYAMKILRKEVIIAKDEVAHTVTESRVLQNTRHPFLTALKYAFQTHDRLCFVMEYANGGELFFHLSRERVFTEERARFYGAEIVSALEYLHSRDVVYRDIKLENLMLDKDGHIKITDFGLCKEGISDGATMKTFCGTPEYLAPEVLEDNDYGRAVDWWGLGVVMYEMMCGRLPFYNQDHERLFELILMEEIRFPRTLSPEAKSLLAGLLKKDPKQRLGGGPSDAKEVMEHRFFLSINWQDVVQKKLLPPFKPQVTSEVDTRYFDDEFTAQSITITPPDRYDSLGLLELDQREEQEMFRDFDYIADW

Compound: NCC(c1ccccc1)c1ccc(-c2cn[nH]c2)cc1 (centres unmarked) [Example 1, 2-Phenyl-2-[4-(1H-pyrazol-4-yl)-phenyl]-ethylamine]
- IC50 [1]: < 1000 nM
- IC50 (PKA catalytic domain): < 1000 nM

Compound: NCC(c1ccc(Cl)cc1)c1ccc(-c2cn[nH]c2)cc1 (centres unmarked) [Example 4, 2-(4-Chloro-phenyl)-2-[4-(1H-pyrazol-4-yl)-phenyl]-ethylamine]
- IC50 (PKA catalytic domain; [2]): < 1000 nM

Compound: Cc1n[nH]c(C)c1-c1cccc(CC(N)c2ccccc2)c1 (centres unmarked) [Example 5, 2-[3-(3,5-Dimethyl-1H-pyrazol-4-yl)-phenyl]-1-phenyl-ethylamine]
- IC50 [1, 3]: < 5000 nM
- IC50 (PKA catalytic domain; [2]): < 15000 nM

Compound: NCC(Cc1ccccc1)c1ccc(-c2cn[nH]c2)cc1 (centres unmarked) [Example 7, 3-Phenyl-2-[4-(1H-pyrazol-4-yl)-phenyl]-propylamine]
- IC50 [1, 3]: < 5000 nM
- IC50 (PKA catalytic domain; [2]): < 15000 nM

Compound: CCNCC(c1ccc(Cl)cc1)c1ccc(-c2cn[nH]c2)cc1 (centres unmarked) [Example 43, {2-(4-Chloro-phenyl)-2-[4-(1H-pyrazol-4-yl)-phenyl]-ethyl}-ethyl-amine]
- IC50 [1, 3]: < 1000 nM
- IC50 (PKA catalytic domain; [2]): < 1000 nM

Compound: Clc1ccc(C(Cn2ccnc2)c2ccc(-c3cn[nH]c3)cc2)cc1 (centres unmarked) [Example 44, 4-{4-[1-(4-Chloro-phenyl)-2-imidazol-1-yl-ethyl]-phenyl}-1H-pyrazole]
- IC50 [1, 3]: < 1000 nM
- IC50 (PKA catalytic domain; [2]): < 1000 nM

Compound: CNCC(c1ccc(Oc2ccccc2)cc1)c1ccc(-c2cn[nH]c2)cc1 (centres unmarked) [Example 45, Methyl-{2-(4-phenoxy-phenyl)-2-[4-(1H-pyrazol-4-yl)-phenyl]-ethyl}-amine]
- IC50 [1, 3]: < 5000 nM
- IC50 (PKA catalytic domain; [2]): < 1000 nM

Compound: CNCC(c1ccc(OC)cc1)c1ccc(-c2cn[nH]c2)cc1 (centres unmarked) [Example 46, {2-(4-Methoxy-phenyl)-2-[4-(1H-pyrazol-4-yl)-phenyl]-ethyl}-methyl-amine]
- IC50 [1, 3]: < 1000 nM
- IC50 (PKA catalytic domain; [2]): < 1000 nM

Compound: CNCC(c1ccc(Oc2cnccn2)cc1)c1ccc(-c2cn[nH]c2)cc1 (centres unmarked) [Example 47, Methyl-{2-[4-(pyrazin-2-yloxy)-phenyl]-2-[4-(1H-pyrazol-4-yl)-phenyl]-ethyl}-amine]
- IC50 [1, 3]: < 1000 nM
- IC50 (PKA catalytic domain; [2]): < 1000 nM

Compound: CNCC(Oc1ccccc1)c1ccc(-c2cn[nH]c2)cc1 (centres unmarked) [Example 48, Methyl-{2-phenoxy-2-[4-(1H-pyrazol-4-yl)-phenyl]-ethyl}-amine]
- IC50 [1, 3]: < 5000 nM
- IC50 (PKA catalytic domain; [2]): < 1000 nM

Compound: NCCOC(c1ccc(Cl)cc1)c1ccc(-c2cn[nH]c2)cc1 (centres unmarked) [Example 49, 2-{(4-Chloro-phenyl)-[4-(1H-pyrazol-4-yl)-phenyl]-methoxy}-ethylamine]
- IC50 [1, 3]: < 1000 nM
- IC50 (PKA catalytic domain; [2]): < 1000 nM

Compound: CNCCC(c1ccc(-c2cn[nH]c2)cc1)c1ccc2ccccc2c1 (centres unmarked) [Example 52, Methyl-{3-naphthalen-2-yl-3-[4-(1H-pyrazol-4-yl)-phenyl]-propyl}-amine]
- IC50 [1, 3]: < 1000 nM
- IC50 (PKA catalytic domain; [2]): < 1000 nM

Compound: CNCCC(c1ccc(F)cc1)c1ccc(-c2cn[nH]c2)cc1 (centres unmarked) [Example 54, {3-(4-Fluoro-phenyl)-3-[4-(1H-pyrazol-4-yl)-phenyl]-propyl}-methyl-amine]
- IC50 [1, 3]: < 1000 nM
- IC50 (PKA catalytic domain; [2]): < 1000 nM

Compound: CNCCC(Oc1cccc(Cl)c1)c1ccc(-c2cn[nH]c2)cc1 (centres unmarked) [Example 59, {3-(3-Chloro-phenoxy)-3-[4-(1H-pyrazol-4-yl)-phenyl]-propyl}-methyl-amine]
- IC50 [1, 3]: < 1000 nM
- IC50 (PKA catalytic domain; [2]): < 1000 nM

Compound: Oc1ccc(C2(c3ccc(-c4cn[nH]c4)cc3)CCNCC2)cc1 [Example 63, 4-{4-[4-(1H-Pyrazol-4-yl)-phenyl]-piperidin-4-yl}-phenol]
- IC50 [1, 3]: < 1000 nM
- IC50 (PKA catalytic domain; [2]): < 1000 nM

Compound: CNCC(c1ccc(-c2cn[nH]c2)cc1)c1cccc(Cl)c1 (centres unmarked) [Example 66, {2-(3-Chloro-phenyl)-2-[4-(1H-pyrazol-4-yl)-phenyl]-ethyl}-methyl-amine]
- IC50 [1, 3]: < 1000 nM
- IC50 (PKA catalytic domain; [2]): < 1000 nM

Compound: COCCOc1ccc(C2(c3ccc(-c4cn[nH]c4)cc3)CCNCC2)cc1 [Example 67, 4-[4-(2-Methoxy-ethoxy)-phenyl]-4-[4-(1H-pyrazol-4-yl)-phenyl]-piperidine]
- IC50 [1, 3]: < 5000 nM
- IC50 (PKA catalytic domain; [2]): < 1000 nM

Compound: OCCNCC(c1ccc(Cl)cc1)c1ccc(-c2cn[nH]c2)cc1 (centres unmarked) [Example 73, 2-{2-(4-Chloro-phenyl)-2-[4-(1H-pyrazol-4-yl)-phenyl]-ethylamino}-ethanol]
- IC50 [1, 3]: < 1000 nM
- IC50 (PKA catalytic domain; [2]): < 1000 nM

Compound: CNCCC(c1ccc(O)cc1)c1ccc(-c2cn[nH]c2)cc1 (centres unmarked) [Example 76, 4-{3-Methylamino-1-[4-(1H-pyrazol-4-yl)-phenyl]-propyl}-phenol]
- IC50 [1, 3]: < 1000 nM

Compound: COc1ccc(C(CCN)c2ccc(-c3cn[nH]c3)cc2)cc1 (centres unmarked) [Example 77, 3-(4-Methoxy-phenyl)-3-[4-(1H-pyrazol-4-yl)-phenyl]-propylamine]
- IC50 [1, 3]: < 1000 nM

Compound: Cc1n[nH]cc1-c1ccc(C2(c3ccc(Cl)cc3)CCNCC2)cc1 [Example 78, 4-(4-Chloro-phenyl)-4-[4-(3-methyl-1H-pyrazol-4-yl)-phenyl]-piperidine]
- IC50 [1, 3]: < 1000 nM
- IC50 (PKA catalytic domain; [2]): < 1000 nM

Compound: Clc1ccc(C2(c3ccc(-c4cn[nH]c4)cc3)CNCCO2)cc1 (centres unmarked) [Example 79, 2-(4-Chloro-phenyl)-2-[4-(1H-pyrazol-4-yl)-phenyl]-morpholine]
- IC50 [1]: < 1000 nM
- IC50 (PKA catalytic domain): < 1000 nM

Compound: N#Cc1ccc(C2(c3ccc(-c4cn[nH]c4)cc3)CCNCC2)cc1 [Example 81, 4-{4-[4-(1H-Pyrazol-4-yl)-phenyl]-piperidin-4-yl}-benzonitrile]
- IC50 [1, 3]: < 1000 nM
- IC50 (PKA catalytic domain; [2]): < 1000 nM

Compound: CNCC(C)(c1ccc(Cl)cc1)c1ccc(-c2cn[nH]c2)cc1 (centres unmarked) [Example 82, {2-(4-Chloro-phenyl)-2-[4-(1H-pyrazol-4-yl)-phenyl]-propyl}-methyl-amine]
- IC50 [1, 3]: < 1000 nM
- IC50 (PKA catalytic domain; [2]): < 1000 nM

Compound: CNCC(O)(c1ccc(Cl)cc1)c1ccc(-c2cn[nH]c2)cc1 (centres unmarked) [Example 83, 1-(4-Chloro-phenyl)-2-methylamino-1-[4-(1H-pyrazol-4-yl)-phenyl]-ethanol]
- IC50 [1, 3]: < 1000 nM
- IC50 (PKA catalytic domain; [2]): < 1000 nM

Compound: NCC(O)(c1ccc(Cl)cc1)c1ccc(-c2cn[nH]c2)cc1 (centres unmarked) [Example 84, 2-Amino-1-(4-chloro-phenyl)-1-[4-(1H-pyrazol-4-yl)-phenyl]-ethanol]
- IC50 [1, 3]: < 1000 nM
- IC50 (PKA catalytic domain; [2]): < 1000 nM

Compound: Clc1ccc(C2(c3ccc(-c4cn[nH]c4)cc3)CCNCC2)cc1Cl [Example 85, 4-(3,4-Dichloro-phenyl)-4-[4-(1H-pyrazol-4-yl)-phenyl]-piperidine]
- IC50 [1, 3]: < 1000 nM
- IC50 (PKA catalytic domain; [2]): < 1000 nM

Compound: Fc1cc(C2(c3ccc(-c4cn[nH]c4)cc3)CCNCC2)ccc1Cl [Example 87, 4-(4-Chloro-3-fluoro-phenyl)-4-[4-(1H-pyrazol-4-yl)-phenyl]-piperidine]
- IC50 [1, 3]: < 1000 nM

Compound: c1cc(C2(c3ccc(-c4cn[nH]c4)cc3)CCNCC2)ccn1 [Example 89, 4-[4-(1H-Pyrazol-4-yl)-phenyl]-1,2,3,4,5,6-hexahydro-[4,4′]bipyridinyl]
- IC50 [1, 3]: < 5000 nM

Compound: CNCC(O)(c1ccc(-c2cn[nH]c2)cc1)c1ccc([N+](=O)[O-])cc1 (centres unmarked) [Example 91, 2-Methylamino-1-(4-nitro-phenyl)-1-[4-(1H-pyrazol-4-yl)-phenyl]-ethanol]
- IC50 [1, 3]: < 1000 nM

Compound: NCCC(c1ccc(-c2cn[nH]c2)nc1)c1ccc(Cl)c(Cl)c1 (centres unmarked) [Example 94, 3-(3,4-Dichloro-phenyl)-3-[6-(1H-pyrazol-4-yl)-pyridin-3-yl]-propylamine]
- IC50 [1, 3]: < 1000 nM

Compound: NC(c1ccc(Cl)cc1)c1ccc(-c2cn[nH]c2)cc1 (centres unmarked) [Example 104, C-(4-Chloro-phenyl)-C-[4-(1H-pyrazol-4-yl)-phenyl]-methylamine]
- IC50 [1, 3]: < 1000 nM
